From patent US11702404B2, “GLP-1R modulating compounds” (priority 2019, dated 2023)
Where two headings read alike, the source gives them in different places.

Experiments:
GLP-1R = GLP-1R (Homo sapiens, UniProt P43220); test: GLP-1R activation: cAMP increase in CHO cells stably expressing GLP-1R; assay type: cell-based
[1] = Microsomal stability, human liver microsomes (predicted hepatic clearance); conditions: predicted from in vitro microsomal stability data
[2] = cAMP increase, CHO cells stably expressing GLP-1R, 10 point dose response, 30 minutes incubation, read-out: EC50

Chain of GLP-1R (P43220 24-463): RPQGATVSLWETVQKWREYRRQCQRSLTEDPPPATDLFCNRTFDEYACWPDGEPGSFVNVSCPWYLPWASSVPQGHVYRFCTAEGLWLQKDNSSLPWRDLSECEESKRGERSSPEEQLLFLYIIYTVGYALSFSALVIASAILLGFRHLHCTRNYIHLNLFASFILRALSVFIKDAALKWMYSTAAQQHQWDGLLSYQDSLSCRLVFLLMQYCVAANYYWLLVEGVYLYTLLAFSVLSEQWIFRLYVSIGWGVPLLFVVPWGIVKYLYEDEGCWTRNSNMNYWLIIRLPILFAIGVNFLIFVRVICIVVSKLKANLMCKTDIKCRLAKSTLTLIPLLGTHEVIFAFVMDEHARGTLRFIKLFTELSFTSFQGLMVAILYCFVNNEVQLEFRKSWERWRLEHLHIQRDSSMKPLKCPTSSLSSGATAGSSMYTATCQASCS

| SMILES | EC50 (GLP-1R; [2]) [nM] | Predicted Hepatic Clearance (Pred. Cl.) [1] [mL/min/kg] | EC50 (GLP-1R; EC50 (nM)) [nM] | EC50 (GLP-1R; read-out: EC50) [nM] |
| --- | --- | --- | --- | --- |
| N#Cc1ccc(COc2cccc(-c3cc(F)c(Cc4nc5ccc(C(=O)O)cc5n4CC4(n5ccnn5)CC4)cc3F)n2)c(F)c1 [Example 577, 1-((1-(1H-1,2,3-triazol-1-yl)cyclopropyl)methyl)-2-(4-(6-((4-cyano-2-fluorobenzyl)oxy)pyridin-2-yl)-2,5-difluorobenzyl)-1H-benzo[d]imidazole-6-carboxylic acid] | 0.4 | 7.5 | – | – |
| COCCn1c(Cc2ccc(-c3cccc(OCc4cccnc4[N+](=O)[O-])n3)cc2F)nc2ccc(C(=O)O)cc21 [Example 596, 2-(2-fluoro-4-(6-((2-nitropyridin-3-yl)methoxy)pyridin-2-yl)benzyl)-1-(2-methoxyethyl)-1H-benzo[d]imidazole-6-carboxylic acid] | 816 | 19.5 | – | – |
| N#Cc1ccc(COc2nccc(-c3cc(F)c(Cc4nc5ccc(C(=O)O)cc5n4CC45CC(CO4)C5)cc3F)n2)c(F)c1 [Example 645] | 2.05 | 9.17 | – | – |
| CC1(Cn2c(Cc3cc(F)c(-c4cccc(OCc5ccc(C#N)cc5F)n4)cc3F)nc3ccc(C(=O)O)cc32)COC1 [Example 581, 2-(4-(6-((4-cyano-2-fluorobenzyl)oxy)pyridin-2-yl)-2,5-difluorobenzyl)-1-((3-methyloxetan-3-yl)methyl)-1H-benzo[d]imidazole-6-carboxylic acid] | 0.4 | 6.33 | – | – |
| N#Cc1ccc(COc2ncc(F)c(-c3ccc(Cc4nc5c(F)cc(C(=O)O)cc5n4C[C@@H]4CCO4)c(F)c3)n2)c(F)c1 [Example 880] | 0.26 | 7.5 | – | – |
| COC[C@@H](Cn1c(Cc2cc(F)c(-c3cccc(OCc4ccc(C#N)cc4F)n3)cc2F)nc2ccc(C(=O)O)cc21)OC [Example 621] | – | 10.7 | 17.4 | – |
| N#Cc1ccc(COc2cccc(-c3ccc(Cc4nc5ccc(C(=O)O)cc5n4CCC4(CF)CC4)c(F)c3)n2)c(F)c1 [Example 394, 2-(4-(6-((4-cyano-2-fluorobenzyl)oxy)pyridin-2-yl)-2-fluorobenzyl)-1-(2-(1-(fluoromethyl)cyclopropyl)ethyl)-1H-benzo[d]imidazole-6-carboxylic acid] | 6.06 | 4.17 | – | – |
| COCCn1c(Cc2cc(F)c(-c3cccc(OCc4cnc(C(F)(F)F)s4)n3)cc2F)nc2ccc(C(=O)O)cc21 [Example 862] | 16.2 | 4.33 | – | – |
| N#Cc1ccc(COc2cccc(-c3cc(F)c(Cc4nc5ccc(C(=O)O)cc5n4C[C@@H]4CCO4)cc3F)n2)cc1 [Example 536, (S)-2-(4-(6-((4-cyanobenzyl)oxy)pyridin-2-yl)-2,5-difluorobenzyl)-1-(oxetan-2-ylmethyl)-1H-benzo[d]imidazole-6-carboxylic acid] | 0.04 | 2.42 | – | – |
| COCCn1c(Cc2c(F)cc(-c3cccc(OCc4ccc(C#N)cc4F)n3)cc2F)nc2ccc(C(=O)O)cc21 [Example 39, 2-(4-(6-((4-cyano-2-fluorobenzyl)oxy)pyridin-2-yl)-2,6-difluorobenzyl)-1-(2-methoxyethyl)-1H-benzo[d]imidazole-carboxylic acid] | 8.79 | <1.83 | – | – |
| COC[C@H](CF)n1c(Cc2cc(F)c(-c3cccc(OCc4ccc(C#N)cc4F)n3)cc2F)nc2ccc(C(=O)O)cc21 [Example 727] | 46.3 | 5.5 | – | – |
| CC(C1CCCO1)n1c(Cc2cc(F)c(-c3cccc(OCc4ccc(C#N)cc4F)n3)cc2F)nc2ccc(C(=O)O)cc21 (stereo not shown) [Example 833] | 6.41 | 9.83 | – | – |
| N#Cc1ccc(COc2cccc(-c3cc(F)c(Cc4nc5ccc(C(=O)O)cc5n4CC4(n5cncn5)CC4)cc3F)n2)c(F)c1 [Example 274, 1-((1-(1H-1,2,4-triazol-1-yl)cyclopropyl)methyl)-2-(4-(6-((4-cyano-2-fluorobenzyl)oxy)pyridin-2-yl)-2,5-difluorobenzyl)-1H-benzo[d]imidazole-6-carboxylic acid] | 0.23 | 8 | – | – |
| N#Cc1cc(F)c(COc2nccc(-c3ccc(Cc4nc5ccc(C(=O)O)cc5n4C[C@@H]4CCO4)cc3F)n2)cc1F [Example 789] | 1.18 | 5.67 | – | – |
| COCCn1c(Cc2ccc(-c3cccc(OCc4ccc(C#N)cc4F)n3)c(C#N)c2)nc2ccc(C(=O)O)cc21 [Example 526, 2-(3-cyano-4-(6-((4-cyano-2-fluorobenzyl)oxy)pyridin-2-yl)benzyl)-1-(2-methoxyethyl)-1H-benzo[d]imidazole-6-carboxylic acid] | – | 7.5 | 70.9 | – |
| COC[C@H]1C[C@@H](n2c(Cc3cc(F)c(-c4cccc(OCc5ccc(C#N)cc5F)n4)cc3F)nc3ccc(C(=O)O)cc32)C1 [Example 734] | 168 | 8 | – | – |
| COCCn1c(C2CCc3cc(-c4cccc(OCc5ccc(C#N)cc5F)n4)ccc32)nc2ccc(C(=O)O)cc21 (single isomer, unassigned) [Example 47, 2-(5-(6-((4-cyano-2-fluorobenzyl)oxy)pyridin-2-yl)-2,3-dihydro-1H-inden-1-yl)-1-(2-methoxyethyl)-1H-benzo[d]imidazole-6-carboxylic acid] | 1440 | 4.67 | – | – |
| CO[C@@H]1CN(C(C)=O)C[C@@H]1n1c(Cc2cc(F)c(-c3cccc(OCc4ccc(C#N)cc4F)n3)cc2F)nc2ccc(C(=O)O)cc21 [Example 919] | – | 4.17 | – | 840 |
| COCCn1c(Cc2ccc(-c3cccc(OCc4cccc(-c5ccccc5)c4)n3)cc2F)nc2ccc(C(=O)O)cc21 [Example 504, 2-(4-(6-([1,1′-biphenyl]-3-ylmethoxy)pyridin-2-yl)-2-fluorobenzyl)-1-(2-methoxyethyl)-1H-benzo[d]imidazole-6-carboxylic acid] | 28.5 | 3.5 | – | – |
| COCCn1c(C2CCc3cc(-c4cccc(OCc5ccc(C#N)cc5F)n4)ccc32)nc2ccc(C(=O)O)cc21 (single isomer, unassigned) [Example 46, 2-(5-(6-((4-cyano-2-fluorobenzyl)oxy)pyridin-2-yl)-2,3-dihydro-1H-inden-1-yl)-1-(2-methoxyethyl)-1H-benzo[d]imidazole-6-carboxylic acid] | 62.4 | 5 | – | – |
| COCCn1c(Cc2ccc(-c3cccc(OCc4ccc(C#N)cc4F)n3)cc2C#CC(C)(C)O)nc2ccc(C(=O)O)cc21 [Example 419, 2-(4-(6-((4-cyano-2-fluorobenzyl)oxy)pyridin-2-yl)-2-(3-hydroxy-3-methylbut-1-yn-1-yl)benzyl)-1-(2-methoxyethyl)-1H-benzo[d]imidazole-6-carboxylic acid] | 20.7 | 7.33 | – | – |
| COCCn1c(Cc2ccc(-c3cccc(OCc4ccc(C#N)cc4F)n3)cc2OC(F)(F)F)nc2ccc(C(=O)O)cc21 [Example 40, 2-(4-(6-((4-cyano-2-fluorobenzyl)oxy)pyridin-2-yl)-2-(trifluoromethoxy)benzyl)-1-(2-methoxyethyl)-1H-benzo[d]imidazole-6-carboxylic acid] | 456 | <1.83 | – | – |
| COCCn1c(Cc2cc(F)c(-c3cccc(OCc4ccc(C#N)cc4F)n3)cc2F)nc2ccc(C(=O)O)c(F)c21 [Example 309, 2-(4-(6-((4-cyano-2-fluorobenzyl)oxy)pyridin-2-yl)-2,5-difluorobenzyl)-7-fluoro-1-(2-methoxyethyl)-1H-benzo[d]imidazole-6-carboxylic acid] | 2.16 | 5.17 | – | – |
| COCCn1c(Cc2cc(F)c(-c3cccc(OCc4ccc(Cl)nc4C)n3)cc2F)nc2ccc(C(=O)O)cc21 [Example 821] | 14.8 | 2.67 | – | – |
| COCCn1c(C(C)c2ccc(-c3cccc(OCc4ccc(C#N)cc4F)n3)cc2)nc2ccc(C(=O)O)cc21 (single isomer, unassigned) [Example 418, 2-(1-(4-(6-((4-cyano-2-fluorobenzyl)oxy)pyridin-2-yl)phenyl)ethyl)-1-(2-methoxyethyl)-1H-benzo[d]imidazole-6-carboxylic acid] | 18.3 | 4.83 | – | – |
| COCCn1c(Cc2ccc(-c3cccc(OCc4ccc(C#N)cc4F)n3)c(F)c2)nc2c(F)cc(C(=O)O)cc21 [Example 681] | 5.64 | 3.33 | – | – |
| N#Cc1ccc(COc2cccc(-c3ccn(Cc4nc5ccc(C(=O)O)cc5n4CC4(CF)CC4)c(=O)c3)n2)c(F)c1 [Example 424, 2-((6-((4-cyano-2-fluorobenzyl)oxy)-2′-oxo-[2,4′-bipyridin]-1′(2′H)-yl)methyl)-1-((1-(fluoromethyl)cyclopropyl)methyl)-1H-benzo[d]imidazole-6-carboxylic acid] | 15.7 | 2.33 | – | – |
| COCCn1c(Cc2ccc(-c3cccc(OCc4ccc(C#N)cc4F)n3)cc2-c2ccncc2)nc2ccc(C(=O)O)cc21 [Example 175, 2-(4-(6-((4-cyano-2-fluorobenzyl)oxy)pyridin-2-yl)-2-(pyridin-4-yl)benzyl)-1-(2-methoxyethyl)-1H-benzo[d]imidazole-6-carboxylic acid] | 9270 | 15.7 | – | – |
| N#Cc1ccc(COc2cccc(-c3ccc(Cc4nc5ccc(C(=O)O)cc5n4CC4(CO)CC4)c(F)c3)n2)c(F)c1 [Example 375, 2-(4-(6-((4-cyano-2-fluorobenzyl)oxy)pyridin-2-yl)-2-fluorobenzyl)-1-((1-(hydroxymethyl)cyclopropyl)methyl)-1H-benzo[d]imidazole-6-carboxylic acid] | 5.46 | 4.25 | – | – |
